target: human IDO1 (Homo sapiens, UniProt P14902); test: Assessment of human IDO-1 inhibitory activity in Hela cells (Interferon-gamma activated, Ehrlich reagent, absorbance at 490 nm); format: cell-based; design: endogenous in cells; host or cells: HeLa cells stimulated with interferon-gamma; conditions: 18 hours
Experimental: Exemplary compounds were tested for inhibition of IDO activity.
HeLa cells were seeded at 20,000 cells per 30 µL per well with RPMI/phenol red free media containing 10% FBS in a 384-well tissue culture plate (black with clear bottoms). 50 nL of compound was added to cells and incubated at 37° C. for one hour. 20 μL of the recombinant human Interferon-gamma (R&D System, Cat. #285-IF, at final concentration of 10 ng/ml) or recombinant murine Interferon-gamma (PEPROTECH® Inc., Cat. #315-05, final concentration of 5 ng/ml) was added to activate IDO signaling. The cells were incubated for 18 hours in 37° C. incubator with 5% CO2.
Compound treatment was stopped by adding 5 μl trichloroacetic acid to a final concentration of 3%. Subsequently, the cell plate was further incubated at 50° C. for 30 minute. An equal volume supernatant (20 μL) and 2% (w/v) Ehrlich reagent (4-dimethylaminobenzaldehyde) in glacial acetic acid were mixed in a new clear bottom 384-well plate. This plate was incubated at room temperature for 30 minutes. Absorbance at 490 nm was measured on Envision plate reader.
Compound IC50 values were calculated using counts from unstimulated (no INF-gamma treatment) wells as 100% inhibition. INF-gamma treatment without compound treatment as 0% inhibition.

human IDO1, sequence (P14902 whole entry): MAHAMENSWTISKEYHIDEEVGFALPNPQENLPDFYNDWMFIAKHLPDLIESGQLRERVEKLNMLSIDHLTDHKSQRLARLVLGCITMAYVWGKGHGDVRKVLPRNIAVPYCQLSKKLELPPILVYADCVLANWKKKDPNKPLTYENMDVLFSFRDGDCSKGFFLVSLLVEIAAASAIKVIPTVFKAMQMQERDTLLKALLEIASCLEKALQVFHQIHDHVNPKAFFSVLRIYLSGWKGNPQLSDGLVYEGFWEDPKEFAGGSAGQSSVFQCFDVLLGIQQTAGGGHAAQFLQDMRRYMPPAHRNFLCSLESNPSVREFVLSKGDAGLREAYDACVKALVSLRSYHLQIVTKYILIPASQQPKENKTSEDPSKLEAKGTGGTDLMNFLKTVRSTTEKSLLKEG

IC50 [µM]	Compound
< 0.005	CCOc1ncc(Nc2cc(C(CC)CC(=O)O)ccc2N(CC)C2CCCOC2)cn1 (single isomer, unassigned) [Example 66, 3-(3-((2-ethoxypyrimidin-5-yl)amino)-4-(ethyl(tetrahydro-2H-pyran-3-yl)amino)phenyl)pentanoic acid]
< 0.05	COCC(CC(=O)O)c1ccc(N(C)C2CCOCC2)c(Nc2ccc(C#N)c(F)c2)c1 (single isomer, unassigned) [Example 882, 3-(3-((4-cyano-3-fluorophenyl)amino)-4-(methyl(tetrahydro-2H-pyran-4-yl)amino)phenyl)-4-methoxybutanoic acid]
> 0.05	COCC(CC(=O)O)c1ccc(N2CCOC[C@@H]2C(C)C)c(NC(=O)Nc2ccc(C#N)cc2)c1 (single isomer, unassigned) [Example 936]
> 0.05	CCN(c1c(F)cc(C(COC)CC(=O)O)cc1NC(=O)Nc1ccc(Cl)cc1F)C1CCOCC1 (single isomer, unassigned) [Example 917, 3-(3-(3-(4-Chloro-2-fluorophenyl)ureido)-4-(ethyl(tetrahydro-2H-pyran-4-yl)amino)-5-fluorophenyl)-4-methoxybutanoic acid]
> 0.05	COCCN(c1ccc(C(COC)CC(=O)O)cc1NC(=O)Nc1ccc(Cl)cc1F)C1CCOCC1 (single isomer, unassigned) [Example 263, 3-(3-(3-(4-chloro-2-fluorophenyl)ureido)-4-((2-methoxyethyl)(tetrahydro-2H-pyran-4-yl)amino)phenyl)-4-methoxybutanoic acid]
> 0.05	CCN(c1ccc([C@H](COC)CC(=O)O)cc1Nc1ncc(F)cc1F)C1CCOCC1 (single isomer, unassigned) [Example 395]
< 0.005	COCCN(c1ccc(C(COC)CC(=O)O)cc1Nc1ccc(Cl)cc1)C1CCOCC1 (single isomer, unassigned) [Example 256 Enantiomer 2, 3-(3-((4-Chlorophenyl)amino)-4-((2-methoxyethyl)(tetrahydro-2H-pyran-4-yl)amino)phenyl)-4-methoxybutanoic acid]
< 0.005	CCN(c1ccc(C(CC(=O)O)C2CC2)cc1Nc1ccc(F)cc1)C1CCS(=O)(=O)CC1 (single isomer, unassigned) [Example 347, 3-cyclopropyl-3-(4-((1,1-dioxidotetrahydro-2H-thiopyran-4-yl)(ethyl)amino)-3-((4-fluorophenyl)amino)phenyl)propanoic acid]
< 0.005	CCC(CC(=O)O)c1ccc(N(CC)C2CCCOC2)c(Nc2ccc(C#N)cc2)c1 (single isomer, unassigned) [Example 67, 3-(3-((4-cyanophenyl)amino)-4-(ethyl (tetrahydro-2H-pyran-3-yl)amino)phenyl)pentanoic acid]
> 0.05	(S)-3-(4-((1,1-dioxidotetrahydro-2H-thiopyran-4-yl)(ethyl)amino)-3-((2-methoxypyrimidin-5-yl)amino)phenyl)-4-isopropoxybutanoic acid [Example 327]
< 0.005	CC[C@H](CC(=O)O)c1ccc(N(CC)C2CCOCC2)c(Nc2ccc(C#N)cn2)c1 (single isomer, unassigned) [Example 504]
> 0.05	Cc1ccc(NC(=O)Nc2cc(C(CC(=O)O)C3CC3)ccc2N2C[C@@H](C)O[C@@H](C)C2)cc1 (single isomer, unassigned) [Example 251 Enantiomer 2]

The remaining lines, values behind:

Compound	IC50 [µM]
CCOc1ncc(Nc2cc(C(CC)CC(=O)O)ccc2N2CCC(C)CC2)cn1 (single isomer, unassigned) [Example 45, 3-(3-((2-ethoxypyrimidin-5-yl)amino)-4-(4-methylpiperidin-1-yl)phenyl)pentanoic acid]	> 0.05
CCN(c1ccc([C@H](COC)CC(=O)O)cc1Nc1ccc(Cl)cc1)C1CCOCC1 (single isomer, unassigned) [Example 413]	< 0.005
CCCOc1ncc(Nc2cc(C(C)CC(=O)O)ccc2N(CC)C2CCOCC2)cn1 (single isomer, unassigned) [Example 634, 3-(4-(ethyl(tetrahydro-2H-pyran-4-yl)amino)-3-((2-propoxypyrimidin-5-yl)amino)phenyl)butanoic acid]	< 0.05
CCC(CC(=O)O)c1cc(Nc2cnc(OCC3CC3)nc2)c(N(CC)C2CCOCC2)cc1F (single isomer, unassigned) [Example 863, 3-(5-((2-(cyclopropylmethoxy)pyrimidin-5-yl)amino)-4-(ethyl(tetrahydro-2H-pyran-4-yl)amino)-2-fluorophenyl) pentanoic acid]	< 0.005
CCC(CC(=O)O)c1ccc(N2CCC(C)CC2)c(Nc2ccc(C#N)cc2)c1 (single isomer, unassigned) [Example 41 Enantiomer 2, 3-(3-((4-Cyanophenyl)amino)-4-(4-methylpiperidin-1-yl)phenyl)pentanoic acid]	< 0.05
3-(3-((4-cyanophenyl)amino)-4-(ethyl (tetrahydro-2H-pyran-4-yl)amino) phenyl)-3-methylpentanoic acid [Example 27]	< 0.005
CCC(CC(=O)O)c1cc(F)c(N(CC)C2CCOCC2)c(Nc2ccc(Cl)cc2)c1 (single isomer, unassigned) [Example 144, 3-(3-((4-chlorophenyl)amino)-4-(ethyl (tetrahydro-2H-pyran-4-yl)amino)-5-fluorophenyl)pentanoic acid]	< 0.005
CCC(CC(=O)O)c1ccc(N(CCOC)C2CCOCC2)c(Nc2ccc(C#N)cc2)c1 (single isomer, unassigned) [Example 1261, 3-(3-((4-cyanophenyl)amino)-4-((2-methoxyethyl)(tetrahydro-2H-pyran-4-yl)amino)phenyl)pentanoic acid]	< 0.005
CCC1COCCN1c1ccc([C@@H](COC)CC(=O)O)cc1Nc1ccc(C#N)cn1 (single isomer, unassigned) [Example 1297]	> 0.05
C[C@@H]1CN(c2ccc(C(CC(=O)O)C3CC3)cc2NC(=O)Nc2ccc(Cl)cc2F)C[C@H](C)O1 (single isomer, unassigned) [Example 253]	> 0.05
CCN(c1ccc([C@H](COC)CC(=O)O)cc1Nc1ccc(C)cc1)C1CCOCC1 (single isomer, unassigned) [Example 410]	< 0.05
(R)-3-(4-((1,1-dioxidotetrahydro-2H-thiopyran-4-yl)(ethyl)amino)-3-((4-fluorophenyl)amino)phenyl)-4-isopropoxybutanoic acid [Example 331]	< 0.05
CCC1COCCN1c1ccc([C@@H](COC)CC(=O)O)cc1Nc1cnc(OC)nc1 (single isomer, unassigned) [Example 1298]	> 0.05
CCN(c1ccc(C(COC)CC(=O)O)cc1NC(=O)Nc1ccc(C#N)cc1)C1CCOCC1 (single isomer, unassigned) [Example 422 E2]	> 0.05
CCC1COCCN1c1ccc([C@H](COC)CC(=O)O)cc1Nc1ccc(F)cn1 (single isomer, unassigned) [Example 1310]	> 0.05
COCC(CC(=O)O)c1ccc(N(C)C2CCOCC2)c(Nc2ccc(C#N)cc2)c1 (single isomer, unassigned) [Example 880, 3-(3-((4-Cyanophenyl)amino)-4-(methyl(tetrahydro-2H-pyran-4-yl)amino)phenyl)-4-methoxybutanoic acid]	< 0.05
CCC(CC(=O)O)c1ccc(N2CCC(C)CC2)c(NC(=O)Nc2ccc(C)cc2)c1 (single isomer, unassigned) [Example 46 Enantiomer 2, 3-(4-(4-Methylpiperidin-1-yl)-3-(3-(p-tolyl)ureido)phenyl) pentanoic acid]	> 0.05
(R)-3-(3-((4-chlorophenyl)amino)-4-((1,1-dioxidotetrahydro-2H-thiopyran-4-yl)(ethyl)amino)phenyl)-4-isopropoxybutanoic acid [Example 330]	< 0.005
CCOc1ncc(Nc2cc(C(CC)CC(=O)O)ccc2N2CCOCC2)cn1 (single isomer, unassigned) [Example 7 Enantiomer 1, 3-(3-((2-Ethoxypyrimidin-5-yl)amino)-4-morpholinophenyl)pentanoic acid]	> 0.05
CCC(CC(=O)O)c1ccc(N2CC(O)(c3ccc(F)cc3)C2)c(Nc2ccc(C#N)cc2)c1 (single isomer, unassigned) [Example 1255, 3-(3-((4-cyanophenyl)amino)-4-(3-(4-fluorophenyl)-3-hydroxyazetidin-1-yl)phenyl)pentanoic acid]	< 0.05
(S)-3-(4-((1,1-dioxidotetrahydro-2H-thiopyran-4-yl)(ethyl)amino)-3-((2-ethoxypyrimidin-5-yl)amino)phenyl)-4-isopropoxybutanoic acid [Example 328]	> 0.05
CCC(CC(=O)O)c1ccc(N(CC)C2CCOC2)c(NC(=O)Nc2ccc(Cl)cc2F)c1 (single isomer, unassigned) [948 D1]	< 0.05
CCOc1ncc(Nc2cc(C(CC(=O)O)C3CC3)ccc2N(CC)C2CCOCC2)cn1 (single isomer, unassigned) [Example 39, 3-cyclopropyl-3-(3-((2-ethoxypyrimidin-5-yl)amino)-4-(ethyl(tetrahydro-2H-pyran-4-yl)amino)phenyl)propanoic acid]	< 0.05
